According to PMC7278020, “Triterpenic Acids as Non-Competitive α-Glucosidase Inhibitors from Boswellia elongata with Structure-Activity Relationship: In Vitro and In Silico Studies” (Biomolecules, 2020):
Like-named read-outs stand apart in the source and are kept apart here.

How the values were obtained:
[1] = molecular target: T1, α-Glucosidase enzyme (E.C. 3.2.1.20) (Saccharomyces cerevisiae, UniProt P53341); assay: biochemical
T1 construct: purchased Sigma-Aldrich G0660-750UN
Procedure: (§1) α-Glucosidase enzyme (E.C. 3.2.1.20) from Saccharomyces cerevisiae were purchased from Sigma-Aldrich (Darmstadt, Hesse, Germany) with product number of G0660-750UN and their inhibition assay was carried out by using 0.1 M phosphate buffer (pH 6.8) solution at 37 °C. […] For the kinetics studies, different concentrations (0.1, 0.2, 0.4 and 0.8 mM) of p-nitrophenyl-α-D-glucopyranoside (substrate) were used. In control the tested compounds were replaced with DMSO-d6 (7.5% final). […] Three time the experiment was repeated having triplicate of each samples. The % inhibition was calculated by using the following formula:% Inhibition = 100 − (OD test well/OD control) ×100 (OD = Optical density)

α-glucosidase enzyme [2] = molecular target: T2, α-glucosidase enzyme (Saccharomyces cerevisiae, UniProt P53341); assay: Kinetics studies on α-glucosidase (Lineweaver–Burk, secondary replot, Dixon plot); type: biochemical; conditions: for Type of Inhibition: Lineweaver–Burk plots
T2 construct: purchased Sigma-Aldrich G0660-750UN
Procedure: as §1
The type of inhibition was determined by Lineweaver–Burk plots, the reciprocal of the rate of the reaction was plotted against the reciprocal of substrate concentrations to monitor the effect of inhibitor on both Km and Vmax. […] In non-competitive inhibition, the Vmax of enzyme decreased, while Km are not affected. […] The secondary replots of Lineweaver–Burk plots were used to determine the Ki values.

[3] = molecular target: T1, α-Glucosidase enzyme (E.C. 3.2.1.20); conditions: the previous investigation; acetyl group at C-3 position; cited from earlier work
α-glucosidase enzyme [4] = molecular target: T2, α-glucosidase enzyme; parameters: method as in PMID 29030193; conditions: cited from earlier work
[5] = substrate 0.1, 0.2, 0.4 and 0.8 mM, read-out: Ki = µM ± SEM
[6] = pH 6.8, 37 °C, substrate p-nitrophenyl-α-D-glucopyranoside 0.7 mM, NA = Not active, read-out: IC50 = µM ± SEM

T1 sequence (P53341 whole entry): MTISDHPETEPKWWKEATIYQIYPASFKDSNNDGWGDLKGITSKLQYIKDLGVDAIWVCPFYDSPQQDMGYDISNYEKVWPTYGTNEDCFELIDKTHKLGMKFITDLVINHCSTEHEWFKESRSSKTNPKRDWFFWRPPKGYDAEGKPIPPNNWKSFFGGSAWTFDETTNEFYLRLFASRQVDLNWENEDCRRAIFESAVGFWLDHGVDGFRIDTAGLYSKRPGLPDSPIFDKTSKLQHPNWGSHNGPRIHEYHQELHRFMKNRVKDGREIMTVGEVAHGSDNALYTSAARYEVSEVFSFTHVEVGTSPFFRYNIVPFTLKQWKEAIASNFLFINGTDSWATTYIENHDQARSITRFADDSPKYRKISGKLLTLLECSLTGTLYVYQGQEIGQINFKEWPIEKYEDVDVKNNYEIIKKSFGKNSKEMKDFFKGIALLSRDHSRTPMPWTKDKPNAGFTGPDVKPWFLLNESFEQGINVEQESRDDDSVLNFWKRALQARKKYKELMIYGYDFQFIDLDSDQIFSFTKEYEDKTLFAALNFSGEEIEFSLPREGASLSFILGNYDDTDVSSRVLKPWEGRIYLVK
T2 sequence (P53341 whole entry): as above

With `CC(=O)OC1CCC2(C)C3=C(CCC2C1(C)C)C1(C)CCC(C(C)CCC=C(C)C)C1(C)CC3` (stereo not drawn) [Compound 1, 5α-tirucalla-8,24-dien-3α-acetate] the inhibition at 1000 µM [1] was < 50% and the “IC50 = µM ± SEM” value ([1]; pH 6.8, 37 °C, substrate p-nitrophenyl-α-D-glucopyranoside 0.7 mM, NA = Not active) was “inactive”.
In the case of `CC(C)=CCC[C@H](C)C1CC[C@]2(C)C3=C(CC[C@@]12C)[C@@]1(C)CC[C@@H](O)C(C)(C)C1CC3` (stereo partly drawn) [Compound 2, 5α-Tirucalla-8,24-dien-3α-ol], the inhibition at 1000 µM [1] is reported as < 50%.
In the case of `CC(=O)O[C@@H]1CC[C@]2(C)C3=C(CCC2C1(C)C)[C@@]1(C)CCC([C@H](CCC=C(C)C)C(=O)O)[C@]1(C)CC3` (stereo partly drawn) [Compound 3, 3α-Acetoxytirucall-8,24-dien-21-oic acid], the “Type of Inhibition” value (α-glucosidase enzyme [2]) is reported as “Non-competitive”, the Ki (α-glucosidase enzyme [2]; [5]) is reported as 51.1 ± 0.63 µM and the IC50 [1, 6] is reported as 56.8 ± 1.3 µM.
With `CC(=O)O[C@@H]1CC[C@]2(C)C3=CC=C4C5[C@@H](C)[C@H](C)CC[C@]5(C)CC[C@@]4(C)[C@]3(C)CCC2[C@@]1(C)C(=O)O` (stereo partly drawn) [Compound 4, 3-O-Acetyl-9,11-dehydro-β-boswellic acid] the Ki (α-glucosidase enzyme [2]) was 7.05 ± 0.75 µM, the “Type of Inhibition” value (α-glucosidase enzyme [2]) was “Non-competitive” and the IC50 [1] was 9.9 ± 0.48 µM. The “times more active than the standard inhibitor acarbose” value ([1]; from IC50 values) was 94 times.
In the case of `C[C@@H]1CC[C@]2(C)CC[C@]3(C)C(=CC=C4[C@@]5(C)CC[C@@H](O)[C@](C)(C(=O)O)C5CC[C@]43C)C2[C@H]1C` (stereo partly drawn) [Compound 5, 9,11-Dehydro-β-boswellic acid], the “Type of Inhibition” value (α-glucosidase enzyme [2]) is reported as “Non-competitive”, the Ki (α-glucosidase enzyme [2]; [5]) is reported as 15.3 ± 0.54 µM and the IC50 [1, 6] is reported as 20.9 ± 0.05 µM.
For `CC(=O)O[C@@H]1CC[C@@]2(C)[C@@H](CC[C@]3(C)[C@@H]2CC=C2[C@@H]4[C@@H](C)[C@H](C)CC[C@]4(C)CC[C@]23C)[C@@]1(C)C(=O)O` [Compound 6, 3-Acetyl-β-boswellic acid], the “glucosidase inhibition (in words)” value [3] is given as “most promising glucosidase inhibitors”.
In the case of `CC(=O)O[C@@H]1CC[C@@]2(C)[C@@H](CC[C@]3(C)[C@@H]2C(=O)C=C2[C@@H]4[C@@H](C)[C@H](C)CC[C@]4(C)CC[C@]23C)[C@@]1(C)C(=O)O` [Compound 7, 3-Acetyl 11-keto-β-boswellic acid], the “glucosidase inhibition (in words)” value [3] is given as “most promising glucosidase inhibitors”.
With `CO[C@@H]1C=C2C3[C@@H](C)[C@H](C)CC[C@]3(C)CC[C@@]2(C)[C@]2(C)CCC3[C@](C)(CC[C@@H](O)[C@]3(C)C(=O)O)C12` (stereo partly drawn) [Compound 11, 11α-methoxy-β-boswellic acid] the Ki (α-glucosidase enzyme [2]) was 8.05 ± 0.38 µM, the “Type of Inhibition” value (α-glucosidase enzyme [2]) was “Non-competitive” and the IC50 [1] was 14.9 ± 1.31 µM.
For `CC(=O)O[C@@H]1CC[C@@]2(C)[C@@H](CC[C@]3(C)[C@@H]2CC=C2[C@@H]4CC(C)(C)CC[C@]4(C)CC[C@]23C)[C@@]1(C)C(=O)O` [Compound 12, 3-Acetyl-α-boswellic acid], the “glucosidase inhibition (in words)” value [3] is given as “most promising glucosidase inhibitors”.
With `C[C@@H]1CC[C@H]2[C@@H]1C1C(CC[C@]2(C)O)C1(C)C` (some centres unmarked) [Compound 19, Viridiflorol] the inhibition at 1000 µM [1] was < 50%.
With `C/C1=C\CC/C(C)=C/C[C@H](C(C)(C)O)CC/C(C)=C/CC1` [Compound 20, Iso-serratol] the inhibition at 1000 µM [1] was < 50%.
In the case of `CC1(C)CC[C@]2(C(=O)O)CC[C@]3(C)C(=CC[C@@H]4[C@@]5(C)CC[C@H](O)C(C)(C)[C@@H]5CC[C@]43C)[C@@H]2C1` [oleanolic acid], the “Type of inhibition of α-glucosidase (literature)” value (α-glucosidase enzyme [4]) is listed as “non-competitive inhibitors”.
For `C[C@H]1[C@H](C)CC[C@]2(C(=O)O)CC[C@]3(C)C(=CC[C@@H]4[C@@]5(C)CC[C@H](O)C(C)(C)[C@@H]5CC[C@]43C)[C@H]12` [ursolic acid], the “Type of inhibition of α-glucosidase (literature)” value (α-glucosidase enzyme [4]) is listed as “non-competitive inhibitors”.
